The source of these data is patent US6727232B2, “Nucleoside peptide antibiotics of AA-896” (Wyeth Holdings Corporation, priority 2001, dated 2004).

What all share (experiment): Broth dilution MIC
Type in all cases: cell-based
On the technique in general: Dilution methods test growth across graded concentrations, often in twofold steps.

The test system of one assay is M. morganii GC 4531. Particulars: Morganella morganii, GC4531, 18 h, read-out: Antimicrobial Activity (MIC). Here is the method: (§1) The in vitro antibacterial activity of Example 1 through Example 20 is determined against a spectrum of Gram-positive and Gram-negative bacteria by a standard broth dilution method. Serial dilution of the compounds are made in Mueller-Hinton broth and inoculated with a bacterial suspension. The lowest concentration of compound that inhibited the growth of a bacterial strain after 18 hours of incubation at 35° C. is reported as the minimal inhibitory concentration (MIC) for that strain.

Another assay has as its system P. aeruginosa GC 2214. Conditions: Pseudomonas aeruginosa, GC2214, 18 h, read-out: Antimicrobial Activity (MIC). The method, then: as §1
In another assay the test system is CNS GC 4537. Particulars: 18 h, read-out: Antimicrobial Activity (MIC). Here is the method:
as §1

For another assay, the system named is S. aureus GC 1131. Conditions: Staphylococcus aureus, GC1131, 18 h, read-out: Antimicrobial Activity (MIC). Here is the method:
as §1

The next assay concerns CNS GC 4538. Conditions: 18 h, read-out: Antimicrobial Activity (MIC). Here is the method: as §1
The subject of a further assay is P. rettgeri GC 4530. Conditions: Providencia rettgeri, GC4530, 18 h, read-out: Antimicrobial Activity (MIC). Here is the method:
as §1

Another assay has as its system E. cloacae GC 3783. Particulars: Enterobacter cloacae, GC3783, 18 h, read-out: Antimicrobial Activity (MIC). The method, then:
as §1

The test system of the next assay is E. faecalis GC 4555. Particulars: Enterococcus faecalis, GC4555, 18 h, read-out: Antimicrobial Activity (MIC). Here is the method:
as §1

The subject of the next assay is E. coli GC 4560. Particulars: Escherichia coli, GC4560, 18 h, read-out: Antimicrobial Activity (MIC). Here is the method:
as §1

In the next assay the test system is E. coli GC 4559. Conditions: Escherichia coli, GC4559, 18 h, read-out: Antimicrobial Activity (MIC). Here is the method:
as §1

The subject of another assay is S. marcescens GC 4077. Particulars: Serratia marcescens, GC4077, 18 h, read-out: Antimicrobial Activity (MIC). Here is the method:
as §1

The next assay deals with E. faecalis GC 2242. Particulars: Enterococcus faecalis, GC2242, 18 h, read-out: Antimicrobial Activity (MIC). Here is the method: as §1
The test system of the next assay is S. aureus GC 4536. Particulars: Staphylococcus aureus, GC4536, 18 h, read-out: Antimicrobial Activity (MIC). Here is the method: as §1
In a further assay the test system is K. pneumoniae GC 4534. Conditions: Klebsiella pneumoniae, GC4534, 18 h, read-out: Antimicrobial Activity (MIC). Here is the method:
as §1

The test system of another assay is P. aeruginosa GC 4532. Conditions: Pseudomonas aeruginosa, GC4532, 18 h, read-out: Antimicrobial Activity (MIC). Here is the method:
as §1

A further assay has as its system S. aureus GC 2216. Particulars: Staphylococcus aureus, GC2216, 18 h, read-out: Antimicrobial Activity (MIC). The method, then:
as §1

The next assay has as its system E. faecalis GC 842. Particulars: Enterococcus faecalis, GC842, 18 h, read-out: Antimicrobial Activity (MIC). Here is the method: as §1
For the next assay, the system named is CNS GC 4547. Conditions: 18 h, read-out: Antimicrobial Activity (MIC). The method, then: as §1
The next assay has as its system E. coli GC 2203. Particulars: Escherichia coli, GC2203, 18 h, read-out: Antimicrobial Activity (MIC). Here is the method: as §1
Another assay deals with E. coli GC 3226. Conditions: Escherichia coli, GC3226, 18 h, read-out: Antimicrobial Activity (MIC). Here is the method:
as §1

Converted amounts (≈) assume the structure as drawn.

For the molecule `CO[C@H]1C(O[C@H](C2C(=O)N(c3ccc(F)cc3)C(=O)N2CCCNC(=O)C(NC(=O)C(NC(=O)NC(C(=O)O)C(C)C)C2CCNC(=N)N2)C(O)C(C)C)[C@H]2O[C@@H](n3ccc(=O)[nH]c3=O)[C@H](O)[C@@H]2O)O[C@H](CN)[C@@H]1O` (stereo partly drawn) [Example 1, 14-[5-((R)-{[(3R,4S,5R)-5-(Aminomethyl)-4-hydroxy-3-methoxytetrahydro-2-furanyl]oxy}{(2S,3S,4R,5R)-5-[2,4-dioxo-3,4-dihydro-1 (2H)-pyrimidinyl]-3,4-dihydroxytetrahydro-2-furanyl}methyl)-3-(4-fluorophenyl)-2,4-dioxo-1-imidazolidinyl]-9-(1-hydroxy-2-methylpropyl)-6-(2-iminohexahydro-4-pyrimidinyl)-2-isopropyl-4,7,10-trioxo-3,5,8,11-tetraazatetradecan-1-oic acid], the MIC was more than 32 µg/mL in the assay on M. morganii GC 4531; more than 32 µg/mL in the assay with P. aeruginosa GC 2214; more than 32 µg/mL in the assay on CNS GC 4537; more than 32 µg/mL in the assay with S. aureus GC 1131; 32 µg/mL (≈ 30 µM) with CNS GC 4538; more than 32 µg/mL with P. rettgeri GC 4530. The MIC with E. cloacae GC 3783 is more than 32 µg/mL; with E. faecalis GC 4555, more than 32 µg/mL; in the assay with E. coli GC 4560, 64 µg/mL (≈ 60.1 µM); with E. coli GC 4559 it was more than 32 µg/mL; with S. marcescens GC 4077 it was more than 32 µg/mL; with E. faecalis GC 2242 it was more than 32 µg/mL. Moreover, the MIC in the assay with S. aureus GC 4536, with K. pneumoniae GC 4534, in the assay with P. aeruginosa GC 4532, in the assay with S. aureus GC 2216, in the assay with E. faecalis GC 842 and with CNS GC 4547 was more than 32 µg/mL in each case. Moreover, the MIC in the assay on E. coli GC 2203 and with E. coli GC 3226 was more than 32 µg/mL in each case.

The term MIC denotes the least concentration at which growth counts as inhibited.
